Data: patent US11053241B2, “TYK2 inhibitors and uses thereof” (Nimbus Lakshmi, Inc., priority 2018, dated 2021)

Assays:
[1] = molecular target: human TYK2 (JH2domain-pseudokinase) (Homo sapiens (Human), UniProt P29597); experiment: TYK2 JH2 Domain Binding Assay (KINOMEscan); settings: 11-point 3-fold dilution, top concentration 30,000 nM, duplicate
Experimental: Binding constants for compounds of the present invention against the JH2 domain were determined by the following protocol for a KINOMEscan® assay (DiscoveRx). A fusion protein of a partial length construct of human TYK2 (JH2domain-pseudokinase) (amino acids G556 to D888 based on reference sequence NP_003322.3) and the DNA binding domain of NFkB was expressed in transiently transfected HEK293 cells. From these HEK 293 cells, extracts were prepared in M-PER extraction buffer (Pierce) in the presence of Protease Inhibitor Cocktail Complete (Roche) and Phosphatase Inhibitor Cocktail Set II (Merck) per manufacturers' instructions. The TYK2(JH2domain-pseudokinase) fusion protein was labeled with a chimeric double-stranded DNA tag containing the NFkB binding site (5′-GGGAATTCCC-3′) fused to an amplicon for qPCR readout, which was added directly to the expression extract (the final concentration of DNA-tag in the binding reaction is 0.1 nM).
Streptavidin-coated magnetic beads (Dynal M280) were treated with a biotinylated small molecule ligand for 30 minutes at room temperature to generate affinity resins for the binding assays. The liganded beads were blocked with excess biotin and washed with blocking buffer (SeaBlock (Pierce), 1% BSA, 0.05% Tween 20, 1 mM DTT) to remove unbound ligand and to reduce nonspecific binding.
The binding reaction was assembled by combining 16 μl of DNA-tagged kinase extract, 3.8 μl liganded affinity beads, and 0.18 μl test compound (PBS/0.05% Tween 20/10 mM DTT/0.1% BSA/2 μg/ml sonicated salmon sperm DNA). Extracts were used directly in binding assays without any enzyme purification steps at a ≥10,000-fold overall stock dilution (final DNA-tagged enzyme concentration <0.1 nM). Extracts were loaded with DNA-tag and diluted into the binding reaction in a two step process. First extracts were diluted 1:100 in 1× binding buffer (PBS/0.05% Tween 20/10 mM DTT/0.1% BSA/2 μg/ml sonicated salmon sperm DNA) containing 10 nM DNA-tag. This dilution was allowed to equilibrate at room temperature for 15 minutes and then subsequently diluted 1:100 in 1× binding buffer. All reactions were performed in polypropylene 384-well plates. Each was a final volume of 0.02 mL. Assays were incubated with shaking for 1 hour at room temperature. Then the beads were pelleted and washed with wash buffer (1×PBS, 0.05% Tween 20) to remove displaced kinase and test compound. The washed based were re-suspended in elution buffer (1×PBS, 0.05% Tween 20, 0.5 μM non-biotinylated affinity ligand) and incubated at room temperature with shaking for 30 minutes. The kinase concentration in the eluates was measured by qPCR. qPCR reactions were assembled by adding 2.5 μL of kinase eluate to 7.5 μL of qPCR master mix containing 0.15 μM amplicon primers and 0.15 μM amplicon probe. The qPCR protocol consisted of a 10 minute hot start at 95° C., followed by 35 cycles of 95° C. for 15 seconds, 60° C. for 1 minute.
Test compounds were prepared as 111× stocks in 100% DMSO. Kd values were determined using an 11-point 3-fold compound dilution series with three DMSO control points. All compounds for Kd measurements are distributed by acoustic transfer (non-contact dispensing) in 100% DMSO. The compounds were then diluted directly into the assays such that the final concentration of DMSO was 0.9%. The Kd values were determined using a compound top concentration of 30,000 nM. Kd measurements were performed in duplicate.
Binding constants (Kds) were calculated with a standard dose-response curve using the Hill equation: […]
The Hill Slope was set to −1. Curves were fitted using a non-linear least square fit with the Levenberg-Marquardt algorithm (Levenberg, K., A method for the solution of certain non-linear problems in least squares, Q. Appl. Math. 2, 164-168 (1944)).

TYK2 kinase domain (JH1) = TYK2 kinase domain (JH1) (Homo sapiens (Human), UniProt P29597); experiment: TYK2 Radioactive Kinase Assay; type: biochemical; settings: compound at 10 μM; ATP at 10 μM; 120 min at room temp
TYK2 kinase domain (JH1), sequence (P29597 897-1176): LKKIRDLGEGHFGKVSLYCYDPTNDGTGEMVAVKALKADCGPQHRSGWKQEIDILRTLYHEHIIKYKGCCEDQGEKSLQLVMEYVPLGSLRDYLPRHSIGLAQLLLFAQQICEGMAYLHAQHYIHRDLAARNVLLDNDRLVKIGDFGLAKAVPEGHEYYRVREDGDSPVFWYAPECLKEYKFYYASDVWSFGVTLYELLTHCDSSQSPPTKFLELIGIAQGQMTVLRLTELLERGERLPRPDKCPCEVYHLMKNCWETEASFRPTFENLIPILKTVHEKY
Experimental: (§1) Peptide substrate, [KKSRGDYMTMQIG], (20 μM) was prepared in reaction buffer (20 mM Hepes pH 7.5, 10 mM MgCl2, 1 mM EGTA, 0.02% Brij35, 0.02 mg/mL BSA, 0.1 mM […], 2 mM DTT, 1% DMSO). TYK2 (Invitrogen) kinase was added, followed by compounds in DMSO. ^33PATP was added to initiate the reaction in ATP at 10 μM. The kinase reaction was incubated for 120 min at room temp and reactions were spotted onto P81 ion exchange paper (Whatman #3698-915), and then washed extensively in 0.75% phosphoric acid, prior to reading the radioactivity counts. For JAK2 (Invitrogen) kinase assay the peptide substrate poly[Glu:Tyr](4:1), 0.2 mg/ml was used, in the reaction carried out the same as for TYK2.
(§2) The TYK2 and JAK2 radioactive kinase assay measures the percent inhibition at the TYK2 kinase domain (JH1) and the percent inhibition at the JAK2 kinase domain (JH1). Results of the assay are expressed as percent inhibition at 10 μM.

JAK2 kinase domain (JH1) = JAK2 kinase domain (JH1) (Homo sapiens (Human), UniProt O60674); experiment: JAK2 Radioactive Kinase Assay; type: biochemical; settings: compound at 10 μM; ATP at 10 μM; substrate poly[Glu:Tyr](4:1)
JAK2 kinase domain (JH1), sequence (O60674 849-1124): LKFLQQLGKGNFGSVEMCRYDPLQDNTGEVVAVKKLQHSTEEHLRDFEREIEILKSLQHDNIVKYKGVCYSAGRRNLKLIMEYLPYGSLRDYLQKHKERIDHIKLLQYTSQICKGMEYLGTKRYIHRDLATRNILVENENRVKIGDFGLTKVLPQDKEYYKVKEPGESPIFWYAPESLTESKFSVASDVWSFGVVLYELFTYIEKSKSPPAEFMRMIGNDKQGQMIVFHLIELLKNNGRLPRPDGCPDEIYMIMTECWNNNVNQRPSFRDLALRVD
Experimental: as §1, §2

human TYK2 (JH2domain-pseudokinase), sequence (P29597 556-888): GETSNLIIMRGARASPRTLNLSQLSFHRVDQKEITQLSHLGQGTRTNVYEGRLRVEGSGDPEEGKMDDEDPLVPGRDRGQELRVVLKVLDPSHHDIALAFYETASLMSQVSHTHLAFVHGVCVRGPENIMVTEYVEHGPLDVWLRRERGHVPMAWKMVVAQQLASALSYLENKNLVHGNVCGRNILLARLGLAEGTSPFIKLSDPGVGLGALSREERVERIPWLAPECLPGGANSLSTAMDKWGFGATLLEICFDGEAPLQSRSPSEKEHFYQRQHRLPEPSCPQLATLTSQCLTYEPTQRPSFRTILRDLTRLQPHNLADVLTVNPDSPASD

CNC(=O)c1ccc(-c2cc3c(C(=O)NC)cnc(NC(=O)C4CC4)c3[nH]2)c(OC)c1 [Compound I-29, 7-(cyclopropanecarboxamido)-2-(2-methoxy-4-(methylcarbamoyl)phenyl)-N-methyl-1H-pyrrolo[2,3-c]pyridine-4-carboxamide]
Kd [1]: 0.2 to 1 nM | inhibition at 10 µM (TYK2 kinase domain (JH1)): < 50% | inhibition at 10 µM (JAK2 kinase domain (JH1)): < 50%

CNC(=O)c1cnc(NC(=O)C2CC2)c2[nH]c(-c3cc(-c4ncn(C)n4)ccn3)cc12 [Compound I-13, 7-(cyclopropanecarboxamido)-N-methyl-2-(4-(1-methyl-1H-1,2,4-triazol-3-yl)pyridin-2-yl)-1H-pyrrolo[2,3-c]pyridine-4-carboxamide]
Kd [1]: < 0.2 nM | inhibition at 10 µM (TYK2 kinase domain (JH1)): < 50% | inhibition at 10 µM (JAK2 kinase domain (JH1)): < 50%

[2H]C([2H])([2H])NC(=O)c1cnc(NC(=O)C2CC2)c2[nH]c(-c3cc(-c4ncn(C)n4)ccn3)cc12 [Compound I-16, 7-(cyclopropanecarboxamido)-N-(methyl-d3)-2-(4-(1-methyl-1H-1,2,4-triazol-3-yl)pyridin-2-yl)-1H-pyrrolo[2,3-c]pyridine-4-carboxamide]
Kd [1]: < 0.2 nM | inhibition at 10 µM (TYK2 kinase domain (JH1)): < 50% | inhibition at 10 µM (JAK2 kinase domain (JH1)): < 50%

CNC(=O)c1cnc(NC(=O)C2CC2)c2[nH]c(-c3ccc(C(=O)N4CCCC4)cc3OC)cc12 [Compound I-25, 7-(cyclopropanecarboxamido)-2-(2-methoxy-4-(pyrrolidine-1-carbonyl)phenyl)-N-methyl-1H-pyrrolo[2,3-c]pyridine-4-carboxamide]
Kd [1]: < 0.2 nM | inhibition at 10 µM (TYK2 kinase domain (JH1)): < 50% | inhibition at 10 µM (JAK2 kinase domain (JH1)): < 50%

CNC(=O)c1cnc(NC(=O)C2CC2)c2[nH]c(-c3cc(-c4csc(C)n4)ccn3)cc12 [Compound I-10, 7-(cyclopropanecarboxamido)-N-methyl-2-(4-(2-methylthiazol-4-yl)pyridin-2-yl)-1H-pyrrolo[2,3-c]pyridine-4-carboxamide]
Kd [1]: 0.2 to 1 nM | inhibition at 10 µM (TYK2 kinase domain (JH1)): < 50% | inhibition at 10 µM (JAK2 kinase domain (JH1)): < 50%

CNC(=O)CCCNc1ccc(-c2cc3c(C(=O)NC)cnc(NC(=O)C4CC4)c3[nH]2)c(OC)c1 [Compound I-30, 7-(cyclopropanecarboxamido)-2-(2-methoxy-4-((4-(methylamino)-4-oxobutyl)amino)phenyl)-N-methyl-1H-pyrrolo[2,3-c]pyridine-4-carboxamide]
Kd [1]: < 0.2 nM | inhibition at 10 µM (TYK2 kinase domain (JH1)): < 50% | inhibition at 10 µM (JAK2 kinase domain (JH1)): < 50%

CNC(=O)c1cnc(NC(=O)C2CC2)c2[nH]c(-c3cc(-c4ccn(C)n4)cnc3OC3CC3)cc12 [Compound I-38, 7-(cyclopropanecarboxamido)-2-(2-cyclopropoxy-5-(1-methyl-1H-pyrazol-3-yl)pyridin-3-yl)-N-methyl-1H-pyrrolo[2,3-c]pyridine-4-carboxamide]
Kd [1]: 1 to 10 nM | inhibition at 10 µM (TYK2 kinase domain (JH1)): < 50% | inhibition at 10 µM (JAK2 kinase domain (JH1)): < 50%

CNC(=O)c1cnc(NC(=O)C2CC2)c2[nH]c(-c3cccc(-c4cn5c(n4)OCCC5)c3F)cc12 [Compound I-76, 7-(cyclopropanecarboxamido)-2-(3-(6,7-dihydro-5H-imidazo[2,1-b][1,3]oxazin-2-yl)-2-fluorophenyl)-N-methyl-1H-pyrrolo[2,3-c]pyridine-4-carboxamide]
Kd [1]: < 0.2 nM

CNC(=O)c1cnc(NC(=O)C2CC2)c2[nH]c(-c3cccc([C@H]4C[C@H](OC)C4)c3F)cc12 [Compound I-94, 7-(cyclopropanecarboxamido)-2-(2-fluoro-3-((1r,3r)-3-methoxycyclobutyl)phenyl)-N-methyl-1H-pyrrolo[2,3-c]pyridine-4-carboxamide]
Kd [1]: < 0.2 nM

CNC(=O)c1cnc(NC(=O)C2CC2)c2[nH]c(-c3cccc(-c4cn5c(n4)CCC5)c3F)cc12 [Compound I-69, 7-(cyclopropanecarboxamido)-2-(3-(6,7-dihydro-5H-pyrrolo[1,2-a]imidazol-2-yl)-2-fluorophenyl)-N-methyl-1H-pyrrolo[2,3-c]pyridine-4-carboxamide]
Kd [1]: < 0.2 nM

CNC(=O)c1cnc(Nc2ccn(C)n2)c2[nH]c(-c3cccc(-c4cnn(C)c4)c3F)cc12 [Compound I-97, 2-(2-fluoro-3-(1-methyl-1H-pyrazol-4-yl)phenyl)-N-methyl-7-((1-methyl-1H-pyrazol-3-yl)amino)-1H-pyrrolo[2,3-c]pyridine-4-carboxamide]
Kd [1]: < 0.2 nM

CNC(=O)c1cnc(NC(=O)C2CC2)c2[nH]c(-c3ccc(-c4nccn4C)cc3F)cc12 [Compound I-58, 7-(cyclopropanecarboxamido)-2-(2-fluoro-4-(1-methyl-1H-imidazol-2-yl)phenyl)-N-methyl-11H-pyrrolo[2,3-c]pyridine-4-carboxamide]
Kd [1]: < 0.2 nM

CNC(=O)c1cnc(NC(=O)C2CC2)c2[nH]c(-c3ccc(-c4cn(C)nn4)cc3OC)cc12 [Compound I-64, 7-(cyclopropanecarboxamido)-2-(2-methoxy-4-(1-methyl-1H-1,2,3-triazol-4-yl)phenyl)-N-methyl-1H-pyrrolo[2,3-c]pyridine-4-carboxamide]
Kd [1]: > 10 nM

CNC(=O)c1cnc(NC(=O)C2CC2)c2[nH]c(-c3cccc(C4=NC(C)(C)CO4)c3F)cc12 [Compound I-87, 7-(cyclopropanecarboxamido)-2-(3-(4,4-dimethyl-4,5-dihydrooxazol-2-yl)-2-fluorophenyl)-N-methyl-1H-pyrrolo[2,3-c]pyridine-4-carboxamide]
Kd [1]: < 0.2 nM

CNC(=O)c1cnc(NC(=O)C2CC2)c2[nH]c(-c3c(F)cc(-c4nccn4C)cc3N3CCOCC3)cc12 [Compound I-86, 7-(cyclopropanecarboxamido)-2-(2-fluoro-4-(1-methyl-1H-imidazol-2-yl)-6-morpholinophenyl)-N-methyl-1H-pyrrolo[2,3-c]pyridine-4-carboxamide]
Kd [1]: < 0.2 nM

CNC(=O)c1cnc(NC(=O)C2CC2)c2[nH]c(-c3c(F)cc(-n4nccn4)cc3OC3CC3)cc12 [Compound I-82, 7-(cyclopropanecarboxamido)-2-(2-cyclopropoxy-6-fluoro-4-(2H-1,2,3-triazol-2-yl)phenyl)-N-methyl-1H-pyrrolo[2,3-c]pyridine-4-carboxamide]
Kd [1]: > 10 nM

CNC(=O)c1cnc(NC(=O)C2CC2)c2[nH]c(-c3ccc(-c4nccs4)cc3OC)cc12 [Compound I-60, 7-(cyclopropanecarboxamido)-2-(2-methoxy-4-(thiazol-2-yl)phenyl)-N-methyl-1H-pyrrolo[2,3-c]pyridine-4-carboxamide]
Kd [1]: < 0.2 nM

CNC(=O)c1cnc(NC(=O)C2CC2)c2[nH]c(-c3cccc(C4CCCO4)c3F)cc12 (centres unmarked) [Compound I-95, 7-(cyclopropanecarboxamido)-2-(2-fluoro-3-(tetrahydrofuran-2-yl)phenyl)-N-methyl-1H-pyrrolo[2,3-c]pyridine-4-carboxamide]
Kd [1]: < 0.2 nM
